Measurements from paper PMC10428205, “Cytotoxicity of Ruthenium(II) Arene Complexes Containing Functionalized Ferrocenyl β-Diketonate Ligands” (Organometallics, 2023).
Where two headings read alike, the source gives them in different places.

Key:
MIA PaCa-2 [1] = type: cell-based
Procedure: LogP = Log ( [C]final ) Eqn1
96 h Chemosensitivity Studies
In vitro chemosensitivity tests were performed at both the University of Huddersfield and the Institute of Cancer Therapeutics, Bradford, in a sterile Class II Biological Safety Cabinet fitted with a HEPA filtered laminar airflow.
Cellular assays were conducted against human pancreatic carcinoma (MIA PaCa-2), human colorectal carcinoma p53-wildtype (HCT116 p53+/+), and human non-cancerous epithelial retinal cells (ARPE-19). […]
were obtained from the American Type Culture Collection and provided by the University of Huddersfield. All cell lines were routinely maintained as monolayer cultures in appropriate complete medium and maintained in either […]
T-25 or T-75 flasks at 37 °C and 5% CO2.
10% foetal calf serum. All medium was supplemented with sodium pyruvate (1 mM) and L-glutamine (2 mM), and prior to chemosensitivity studies, cell monolayers were passaged using Trypsin-EDTA and diluted to a […]
cells/mL cell suspension was added to each well and incubated for 24 h at 37 °C and 5% CO2. After 24 h, 100 mL of drug dilutions (fresh 100 mM stock solutions in DMSO) in media were added to the plates and then incubated for a further 96 h at 37°C and 5% CO2 (48 h + 48 h recovery period were used for the shorter exposures with MIA PaCa-2 cells only). After 96 h, 20 mL MTT (3-(4,5-dimethylthiazol-2-yl)-2,5-diphenyltetrazolium bromide, 5 mg/mL) was added to each well and incubated for 3 h at 37 °C and 5% CO2. All solutions were then removed from the 96-well plates via pipette and […] of DMSO added to each well to dissolve the purple formazan […]
FC spectrophotometer microplate reader. Using the blank and 100% cell controls, the % cell viability was determined [(abs. of compound containing wells – abs. media wells)/(abs. 100% cell suspension well control)] and from this the % cell death (100%- % cell viability) was calculated. On a logarithmic scale, the percentage cell death was plotted against the concentration of compound, and from this the half maximal inhibitory concentration (IC50) value was determined. Each of the experiments were performed in triplicate with mean values being stated as the IC50 ± Standard Deviation (SD). […]

MIA PaCa-2 [2] = assay: Whole cell uptake by ICP-MS; type: cell-based, human; details: MIA PaCa-2, 10 μM, 48 h; for Whole cell uptake of Fe: ICP-MS
Procedure: Cellular assays were conducted against human pancreatic carcinoma (MIA PaCa-2), human colorectal carcinoma p53-wildtype (HCT116 p53+/+), and human non-cancerous epithelial retinal cells (ARPE-19). The ARPE-19 cells were obtained from the American Type Culture Collection and provided by the University of Huddersfield. All cell lines were routinely maintained as monolayer cultures in appropriate complete medium and maintained in either T-25 or T-75 flasks at 37 °C and 5% CO2. MIA PaCa-2 and ARPE-19 cells were cultured in high glucose DMEM-F12 medium containing 10% foetal calf serum, and HCT116 p53+/+ was cultured in RPMI 1640 supplemented with […]
10% foetal calf serum. […]
Cell uptake assays were conducted using MIA PaCa-2 cells and these were maintained as described above. All assays were conducted in 6-well plates and cell concentrations of 1 x 10^5 cells/ well in 2 mL of complete cell media. These cell suspensions were added to the wells and incubated at 37°C and 5% CO2 for 24 h. The media was then removed, and 2 mL of media/copper compound was added to each well. For each compound, a concentration of 10 µM of ligands L1, L2, L4, L7 or complexes C1, C2, C4, C7 were used. The cells were incubated with the complexes for 48 h, before removing and discarding the media. The cell monolayers were then individually washed with PBS (3 x 1 mL) and all waste discarded. 0.25% Trypsin-EDTA (0.5 mL) was then added until the cells were removed from the surface of the wells and then diluted with media (1.5 mL). The contents of each well were transferred to separate Falcon tubes and centrifuged at 1500 rpm for 5 min. The supernatant was removed, the cell pellets were resuspended in PBS (1 mL) and centrifuged again at 1500 rpm for 5 min (this was completed 3 times). On the final time, the cells were counted before the last centrifuge and then pelleted and store in the freezer for ICP-MS analysis. All assays were conducted in triplicate.
Samples were then taken up in Optima high purity nitric acid, diluted to 10 mL with 1mL rhodium internal standard and 9 mL 18.2 Ultrapure water. The elemental contents of the samples were determined using ICP-MS-QQQ Thermo TQ spectrometer. Measurement of iron mass 56 and ruthenium isotope mass 100 was conducted by comparing solutions of known concentration and intensities. A series of standard calibration curves allows the concentration of each element to be determined. The standards were prepared by weight using 1000 mg/kg reference solutions. Operating conditions: cooling flow rate, 14.0 L/min, auxiliary gas flow rate, 0.8 L/min; sampling Depth 5 mm, additional gas flow 75 %, spray chamber 2.7 degrees, nebulizer flow rate, 1.144 L/min pump speed 15 rpm, RF power of 1,550 W.
Analysis of cellula r DNA damage by the Comet assay […]

Cyclic voltammetry = details: for E0′ (Fc*/Fc*+): 0.1 M TBAPF6 in acetonitrile, Fc/Fc+ = 0.40 V internal standard; for E0′ (Fc*/Fc*+) / EP Red: vs SCE; for EP Red: irreversible reduction; for E0’ (Fc*/Fc*+) at 0.05 V/s: scan speed 0.05 V/s; for E0’ (Fc*/Fc*+) at 0.10 V/s: scan speed 0.10 V/s; for E0’ (Fc*/Fc*+) at 0.25 V/s: scan speed 0.25 V/s
[3] = 96 h MTT, normoxic, ± SD, read-out: IC50 against MIA PaCa-2

IC50 (MIA PaCa-2 [1]; [3]) [µM] | E0′ (Fc*/Fc*+) (Cyclic voltammetry) [V] | EP Red (Cyclic voltammetry) | E0’ (Fc*/Fc*+) at 0.05 V/s (Cyclic voltammetry) [V] | E0’ (Fc*/Fc*+) at 0.10 V/s (Cyclic voltammetry) [V] | E0’ (Fc*/Fc*+) at 0.25 V/s (Cyclic voltammetry) [V] | IC50 (MIA PaCa-2 [1]; MIA PaCa-2, 96 h, read-out: IC50 values ± SD (Table S14)) [µM] | SMILES | Whole cell uptake of Fe (MIA PaCa-2 [2]) [ng Fe/10^6 cells] | Selectivity index (SI), IC50 ARPE-19 / IC50 MIA PaCa-2 (MIA PaCa-2 [1]; 96 h, * = minimum value as at least one IC50 > 100) | increase in Fe uptake compared to the control (MIA PaCa-2 [2])
59 ± 2 | 0.63 | –1.98 V | 0.63 | 0.62 | 0.63 | – | CC(O)=CC(=O)[c-]1cccc1.[Fe+2].c1cc[cH-]c1 [Complex L1] | 2661 ± 974 | – | –
38.7 ± 0.8 | 0.63 | –1.73 V | 0.63 | 0.63 | 0.63 | – | O=C(C=C(O)c1ccccc1)[c-]1cccc1.[Fe+2].c1cc[cH-]c1 [Complex L2] | 2524 ± 458 | – | –
3.6 ± 0.7 | – | – | – | – | – | 3.6 ± 0.7 | [NH2][Pt]([NH2])([Cl])[Cl] [CDDP, cisplatin, reference compound] | – | 1.7 | –
17 ± 1 | 0.71 | –1.42 V | 0.71 | 0.71 | 0.71 | – | O=C(C=C(O)C(F)(F)F)[c-]1cccc1.[Fe+2].c1cc[cH-]c1 [Complex L7] | 1536 ± 202 | – | ca. 1.7 ×
